# Source: patent US20230382940A1, “ANTIVIRAL COMPOUNDS AND METHODS OF MAKING AND USING THE SAME” (Gilead Sciences, Inc., priority 2022, published 2023)
# Experiments:
# Assay type in all cases: cell-based
# [1] = tested on: Human Rhinovirus 14 (HRV14); test: H1-HeLa HRV-CTG 384-well assay, HRV14, Example X; conditions: Rhinovirus B, 96 h; H1-HeLa cells, HRV14 MOI 1.0, 4 days, Celltiter-Glo; read-out: EC50 H1-HeLa_HRV 14_HRV-CTG 384-well Assay (per Ex. X)
# In short: (§1)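 H1-HeLa cells (5,000/well, DMEM 2% FBS) infected with HRV1B, HRV14 or HRV16 at MOI 0.5, 1.0 and 0.25 respectively, with 10-point 1:3 compound dilutions; 4 days at 37 °C. Viability by CellTiter-Glo luminescence, normalized to rupintrivir and DMSO controls; EC50 by non-linear regression.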
# [2] = tested on: Human Rhinovirus 16 (HRV16); test: H1-HeLa HRV-CTG 384-well assay, HRV16, Example X; conditions: Rhinovirus A, 96 h; H1-HeLa cells, HRV16 MOI 0.25, 4 days, Celltiter-Glo; read-out: EC50 H1-HeLa_HRV 16_HRV-CTG 384-well Assay (per Ex. X)
# In short: as §1
# [3] = tested on: Human Rhinovirus 1B (HRV1B); test: H1-HeLa HRV-CTG 384-well assay, HRV1B, Example X; conditions: Rhinovirus A, 96 h; H1-HeLa cells, HRV1B MOI 0.5, 4 days, Celltiter-Glo; read-out: EC50 H1-HeLa_HRV 1B_HRV-CTG 384-well Assay (per Ex. X)
# In short: as §1
# [4] = tested on: Respiratory syncytial virus recombinant with luciferase (RSV-Luc5); test: HEp-2 RSV-Luc5 384-well assay (EC50 RSVFLUC Hep2-384 v2), Example V; conditions: human respiratory syncytial virus, HEp-2, 72 h, read-out: EC50 RSV FLuc Hep-2 384 V2 (per Ex. V)
# In short: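 HEp-2 cells (4,000/well) seeded onto spotted compounds (10-point, 1:3 dilutions) and infected with RSV-Luc5 at MOI 0.5. After 3 days at 37 °C, luciferase read with One-Glo. Signal normalized to remdesivir (0%) and DMSO (100% replication) controls; EC50 from non-linear regression.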
Compound,EC50 [1] [µM],EC50 [2] [µM],EC50 [3] [µM],EC50 [4] [µM]
"CCC(CC)COC(=O)OC[C@@]1(C#N)O[C@@H](c2ccc3c(N)ncnn23)[C@H](O)[C@@H]1O [Compound 31, ((2R,3S,4R,5S)-5-(4-aminopyrrolo[2,1-f][1,2,4]triazin-7-yl)-2-cyano-3,4-dihydroxytetrahydrofuran-2-yl)methyl (2-ethylbutyl) carbonate]",7.62,9.07,3.16,20.3
"N#C[C@]1(COC(=O)OCC2CC2)O[C@@H](c2ccc3c(N)ncnn23)[C@H](O)[C@@H]1O [Compound 32, ((2R,3S,4R,5S)-5-(4-aminopyrrolo[2,1-f][1,2,4]triazin-7-yl)-2-cyano-3,4-dihydroxytetrahydrofuran-2-yl)methyl (cyclopropylmethyl) carbonate]",11.5,12.1,5.69,20.6
"N#C[C@]1(COC(=O)O[C@H]2CCOC2)O[C@@H](c2ccc3c(N)ncnn23)[C@H](O)[C@@H]1O [Compound 33, ((2R,3S,4R,5S)-5-(4-aminopyrrolo[2,1-f][1,2,4]triazin-7-yl)-2-cyano-3,4-dihydroxytetrahydrofuran-2-yl)methyl ((S)-tetrahydrofuran-3-yl) carbonate]",15.6,18.5,8.7,25.1
"CCCOCCOC(=O)OC[C@@]1(C#N)O[C@@H](c2ccc3c(N)ncnn23)[C@H](O)[C@@H]1O [Compound 34, ((2R,3S,4R,5S)-5-(4-aminopyrrolo[2,1-f][1,2,4]triazin-7-yl)-2-cyano-3,4-dihydroxytetrahydrofuran-2-yl)methyl (2-propoxyethyl) carbonate]",14,12.1,7.31,17.6
"CC(C)(C)CCOC(=O)OC[C@@]1(C#N)O[C@@H](c2ccc3c(N)ncnn23)[C@H](O)[C@@H]1O [Compound 35, ((2R,3S,4R,5S)-5-(4-aminopyrrolo[2,1-f][1,2,4]triazin-7-yl)-2-cyano-3,4-dihydroxytetrahydrofuran-2-yl)methyl (3,3-dimethylbutyl) carbonate]",12.2,15.1,8.63,18.9
"N#C[C@]1(COC(=O)OC2CC3(CCC3)C2)O[C@@H](c2ccc3c(N)ncnn23)[C@H](O)[C@@H]1O [Compound 36, ((2R,3S,4R,5S)-5-(4-aminopyrrolo[2,1-f][1,2,4]triazin-7-yl)-2-cyano-3,4-dihydroxytetrahydrofuran-2-yl)methyl spiro[3.3]heptan-2-yl carbonate]",10.6,12,5.93,14.3
"CC1(C)CC(OC(=O)OC[C@@]2(C#N)O[C@@H](c3ccc4c(N)ncnn34)[C@H](O)[C@@H]2O)C1 [Compound 37, ((2R,3S,4R,5S)-5-(4-aminopyrrolo[2,1-f][1,2,4]triazin-7-yl)-2-cyano-3,4-dihydroxytetrahydrofuran-2-yl)methyl (3,3-dimethylcyclobutyl) carbonate]",20.5,12.6,6.74,21.3
"COC[C@@H](C)OC(=O)OC[C@@]1(C#N)O[C@@H](c2ccc3c(N)ncnn23)[C@H](O)[C@@H]1O [Compound 38, ((2R,3S,4R,5S)-5-(4-aminopyrrolo[2,1-f][1,2,4]triazin-7-yl)-2-cyano-3,4-dihydroxytetrahydrofuran-2-yl)methyl ((R)-1-methoxypropan-2-yl) carbonate]",24.4,40,23.8,50
"N#C[C@]1(COC(=O)O[C@@H]2C[C@@H]3C[C@@H]3C2)O[C@@H](c2ccc3c(N)ncnn23)[C@H](O)[C@@H]1O [Compound 39, ((2R,3S,4R,5S)-5-(4-aminopyrrolo[2,1-f][1,2,4]triazin-7-yl)-2-cyano-3,4-dihydroxytetrahydrofuran-2-yl)methyl ((1R,3r,5S)-bicyclo[3.1.0]hexan-3-yl) carbonate]",11.7,22,8.26,28.1
"C[C@H]1CC[C@H](OC(=O)OC[C@@]2(C#N)O[C@@H](c3ccc4c(N)ncnn34)[C@H](O)[C@@H]2O)CC1 [Compound 40, ((2R,3S,4R,5S)-5-(4-aminopyrrolo[2,1-f][1,2,4]triazin-7-yl)-2-cyano-3,4-dihydroxytetrahydrofuran-2-yl)methyl ((1r,4R)-4-methylcyclohexyl) carbonate]",15.4,29.3,9.48,26.7
